Our source for the target mRNA inhibition values is the OligoGym collection.

“And” between values parts separate entries of the source, which are not always exact repeats. Equal entries are not always repeated. After the bases stand the sugars from the 5' end (letter, count) and the backbone: PS all phosphorothioate, else s phosphorothioate and o phosphodiester by linkage. Methylation of C is not given here. k = constrained ethyl (cEt); d = 2'-deoxy (DNA)

In this data set the target is MALAT1. Conditions: ASO, A431, 0.005 µM.
For the sequence GCCTCCTCCGTGTGGT (sugars k3 d10 k3, PS), the target mRNA inhibition is -1%.
Next, GCCTGGTTAGGTATGA (sugars k3 d10 k3, PS): 21%; GCGCTTAAGAGGGCAG (sugars k3 d10 k3, PS): 6%.
For GCTAAGATGCTAGCTT (sugars k3 d10 k3, PS), the target mRNA inhibition came out at 10%.
Next, GCTACAACAAGTAAGC (sugars k3 d10 k3, PS): 9%.
Next, GCTAGTCCTCAGGATT (sugars k3 d10 k3, PS): 47%; GCTCACAAGGCAAATC (sugars k3 d10 k3, PS): -4%; GCTCCTGACAAATTAT (sugars k3 d10 k3, PS): 17%.
Next, GCTGAAATCTATTCAA (sugars k3 d10 k3, PS): -159%; GCTGAACTATCACAAT (sugars k3 d10 k3, PS): 27%.
Regarding GCTGTCAATTAATGCT (sugars k3 d10 k3, PS), the target mRNA inhibition was 24%.
As for GCTGTCTTCCTAGATT (sugars k3 d10 k3, PS), the target mRNA inhibition was 36%.
Next, GCTTTGTTGTCTCTCC (sugars k3 d10 k3, PS): 93% and 97%.
Next, GGAAAGCGAGTTCAAG (sugars k3 d10 k3, PS): 24%.
With GGAATGGCCAGCCTAT (sugars k3 d10 k3, PS), the target mRNA inhibition was 17%.
Next, GGAATTCGATCACCTT (sugars k3 d10 k3, PS): 29%.
Next, GGAGAGGCCAGTTGCG (sugars k3 d10 k3, PS): -10%; GGATCATTAAGCCACT (sugars k3 d10 k3, PS): 15%.
For GGATCCTCTACGCACA (sugars k3 d10 k3, PS), the target mRNA inhibition is 19%.
Turning to GGCAAAATGGCGGACT (sugars k3 d10 k3, PS), the target mRNA inhibition is -14%.
Next, GGCAAACGAAACATTG (sugars k3 d10 k3, PS): 35%; GGCCAAGTCTGTTATG (sugars k3 d10 k3, PS): -1%.
For GGCCAGCCTATAAGGA (sugars k3 d10 k3, PS), the target mRNA inhibition is 6%.
Take GGCCTACTCAAGCTCT (sugars k3 d10 k3, PS): the target mRNA inhibition was 14%.
Next, GGCTCATATTTAACTT (sugars k3 d10 k3, PS): 20%; GGGTACTTCAAGCATT (sugars k3 d10 k3, PS): 43%.
In the case of GGTTTTAGTCACTGGA (sugars k3 d10 k3, PS), the target mRNA inhibition was 85% and 95%.
In the case of GGTTTTATCTAAATAC (sugars k3 d10 k3, PS), the target mRNA inhibition turned out to be 25%.
Next, GTAACAGGCCACTGCC (sugars k3 d10 k3, PS): 14%; GTAATTACTCTTGATC (sugars k3 d10 k3, PS): 47%; GTACACCCAGTGGCTC (sugars k3 d10 k3, PS): 6%.
Turning to GTACTATAGCATCTGT (sugars k3 d10 k3, PS), the target mRNA inhibition came to 45%.
With GTACTATCCCATCACT (sugars k3 d10 k3, PS), the target mRNA inhibition is 33%.
Consider GTAGACCAACTAAGCG (sugars k3 d10 k3, PS), for which the target mRNA inhibition came to 26%.
With GTAGTAAGAATCTCAG (sugars k3 d10 k3, PS), the target mRNA inhibition is 80% and 71%.
Next, GTAGTTGTATTAATCT (sugars k3 d10 k3, PS): 68% and 65%; GTATGACATATAATCT (sugars k3 d10 k3, PS): 55% and 77%; GTCAATAGTACTATAG (sugars k3 d10 k3, PS): 58% and 42%.
Next, GTCAATTAATGCTAGT (sugars k3 d10 k3, PS): 41%.
With GTCAGGGACACACCCA (sugars k3 d10 k3, PS), the target mRNA inhibition is -11%.
Next, GTCTCCGAAGACACAG (sugars k3 d10 k3, PS): -5%; GTCTGAAGAATACCAT (sugars k3 d10 k3, PS): 47%; GTGGAAAGATTTGAGC (sugars k3 d10 k3, PS): 17%.
As for GTGGTTATAGCTTGAC (sugars k3 d10 k3, PS), the target mRNA inhibition was 79% and 93%.
In the case of GTGTTCGCAGACAAAG (sugars k3 d10 k3, PS), the target mRNA inhibition is 10%.
Next, GTGTTTACACTGCTCT (sugars k3 d10 k3, PS): 6%.
Next, GTTAACTAGGCTTTAA (sugars k3 d10 k3, PS): 23%.
For GTTACCAATAATTTCC (sugars k3 d10 k3, PS), the target mRNA inhibition is 71% and 50%.
Turning to GTTACTTGCCAACTTG (sugars k3 d10 k3, PS), the target mRNA inhibition was 63% and 81%.
Next, GTTAGGTATGAGCTTC (sugars k3 d10 k3, PS): 15%; GTTCAACCCACCAAAG (sugars k3 d10 k3, PS): 36%.
Next, GTTCAAGTGGCCTTTT (sugars k3 d10 k3, PS): 22%.
For the sequence GTTCGAGAAATCGGAG (sugars k3 d10 k3, PS), the target mRNA inhibition was 15%.
With GTTGAGAAGTGGCAAA (sugars k3 d10 k3, PS), the target mRNA inhibition turned out to be 20%.
Regarding GTTGATATTTAAGAAC (sugars k3 d10 k3, PS), the target mRNA inhibition was -15%.
Next, GTTTACCACCTTTTGA (sugars k3 d10 k3, PS): 3%.
Next, GTTTCCTAGCTTGTCT (sugars k3 d10 k3, PS): 57%; TAAAGTAGACCAACTA (sugars k3 d10 k3, PS): 14%.
On to TAAATAAGGAGACAGC (sugars k3 d10 k3, PS), for which the target mRNA inhibition stood at 38%.
Next, TAAATTGGTTCTGGTC (sugars k3 d10 k3, PS): 49%; TAACCAACTTCCCCTT (sugars k3 d10 k3, PS): 16%; TAACTAGGCTTTAAAT (sugars k3 d10 k3, PS): 14%.
Next, TAAGCGAATGGCTTTG (sugars k3 d10 k3, PS): 7%.
Next, TAAGGACAGCTAAGAT (sugars k3 d10 k3, PS): 24%; TAAGTTGGTTTTAGTC (sugars k3 d10 k3, PS): 78% and 92%; TAATCTCCCACCTGTC (sugars k3 d10 k3, PS): 7%.
On to TAATGGTTTTCTACAC (sugars k3 d10 k3, PS), for which the target mRNA inhibition was 40%.
Next, TAATGTAGTGTAACAT (sugars k3 d10 k3, PS): 29%; TAATGTCAGCCCAGTA (sugars k3 d10 k3, PS): 7%.
Next, TACACCCAGTGGCTCA (sugars k3 d10 k3, PS): 30%; TACACCTCAGTACGAA (sugars k3 d10 k3, PS): 28%.
